Reference: patent US9145354B2, “Pharmaceutical compounds” (priority 2011, dated 2015)
Where two headings read alike, the source gives them in different places.

Target: full length NS3/4a (Hepatitis C virus genotype 1b (isolate BK) (HCV), UniProt P26663)
Experiment: NS3 Protease Assay (Example A), FRET-based
Format: biochemical
Procedure: The HCV NS3 protease functions have been extensively studied and are considered as potential targets for antiviral therapy: see for example the many references listed in the introductory section of this application. Therefore, the activity of the compounds of the invention as anti-HCV agents was assessed using a full length HCV NS3 protease.
The protease activity of the full length NS3/4a was measured using a FRET-based assay utilizing a peptide substrate derived from the NS4A/B cleavage site (Anaspec) and labelled at one end with a quencher (QXL520) and at the other with a fluorophore (5-FAMsp). NS3/4a (produced in-house by literature methods) was incubated with test compounds and peptide substrate in 50 mM Tris pH8, 20 mM DTT, 1% CHAPS, 10% glycerol and 5% DMSO. The reaction was followed by monitoring the change in fluorescence on a Molecular Devices Gemini plate reader for 30 minutes at room temperature. Initial rates were calculated from the progress curves using SoftMax Pro (Molecular Devices). IC50 values were then calculated from replicate curves using Prism GraphPad software.

[1] = HCV NS3 protease assay, full length NS3/4a, read-out: Assay A IC50 (μM) average
[2] = read-out: IC50 against the protease activity of the full length NS3/4a
[3] = stated as IC50 less than 30 μM or at least 40% inhibition at a concentration of 100 μM, read-out: IC50 against the protease activity of the full length NS3/4a

Chain of full length NS3/4a (P26663 1027-1657): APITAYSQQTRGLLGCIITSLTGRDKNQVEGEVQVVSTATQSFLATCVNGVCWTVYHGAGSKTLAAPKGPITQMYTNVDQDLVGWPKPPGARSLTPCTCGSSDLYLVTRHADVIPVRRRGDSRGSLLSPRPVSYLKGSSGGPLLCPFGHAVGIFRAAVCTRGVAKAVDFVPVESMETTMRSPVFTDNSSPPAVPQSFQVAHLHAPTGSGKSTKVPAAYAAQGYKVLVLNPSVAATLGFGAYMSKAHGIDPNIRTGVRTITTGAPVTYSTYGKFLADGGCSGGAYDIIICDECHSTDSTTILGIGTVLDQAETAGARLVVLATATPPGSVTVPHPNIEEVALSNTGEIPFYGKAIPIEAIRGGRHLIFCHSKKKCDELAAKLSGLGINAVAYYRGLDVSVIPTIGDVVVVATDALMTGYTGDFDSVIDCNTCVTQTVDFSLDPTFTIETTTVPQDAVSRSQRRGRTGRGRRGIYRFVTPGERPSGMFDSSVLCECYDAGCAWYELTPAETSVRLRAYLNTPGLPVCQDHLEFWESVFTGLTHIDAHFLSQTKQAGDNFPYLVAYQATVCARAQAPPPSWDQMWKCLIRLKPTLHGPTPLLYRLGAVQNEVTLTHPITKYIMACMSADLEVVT

Compound `CC[C@@H](N[C@H](C)CC(N)=O)c1ccc(Cl)c(C(=O)c2ccc(C#N)cc2)c1F` [Example 92, (3R)-3-{[(1R)-1-{4-chloro-3-[(4-cyanophenyl)carbonyl]-2-fluorophenyl}propyl]amino}-butanamide] has an IC50 [1] of 0.34 µM.

Compound `CC[C@@H](N[C@H](C)CC(N)=O)c1ccc(Cl)c(C(=O)c2cccnc2)c1F` [Example 94, (3R)-3-{[(1R)-1-{4-chloro-2-fluoro-3-[(pyridin-3-yl)carbonyl]phenyl}propyl]amino}butanamide] has an IC50 [1] of 1 µM and an IC50 [2] of 1 to 5 µM.

In the case of `CC[C@@H](N[C@H](C)CC(N)=O)c1ccc(Cl)c(C(=O)c2cccc(F)c2)c1F` [Example 96, (3R)-3-{[(1R)-1-{4-chloro-2-fluoro-3-[(3-fluorophenyl)-carbonyl]phenyl}propyl]amino}butanamide], the inhibition at 0.3 µM (@ 0.3 uM) is reported as 58%.

For `CC[C@@H](N[C@H](C)CC(N)=O)c1ccc(Cl)c(C(=O)c2ccc(F)cc2)c1F` [Example 98, (3R)-3-{[(1R)-1-{4-chloro-2-fluoro-3-[(4-fluorophenyl)-carbonyl]phenyl}propyl]amino}butanamide], the IC50 [1] was 0.6 µM.

Compound `CC[C@@H](N[C@@H](C)CC(N)=O)c1ccc(Cl)c(C(=O)c2ccncn2)c1F` [Example 99, (3S)-3-{[(1R)-1-{4-chloro-2-fluoro-3-[(pyrimidin-4-yl)carbonyl]phenyl}propyl]-amino}butanamide] has an IC50 [1] of 0.25 µM.

In the case of `CC[C@@H](N[C@H](C)CC(N)=O)c1ccc(Cl)c(C(=O)c2ccncn2)c1F` [Example 100, (3R)-3-{[(1R)-1-{4-chloro-2-fluoro-3-[(pyrimidin-4-yl)carbonyl]phenyl}propyl]amino}butanamide], the IC50 [1] is reported as 14 µM and the IC50 [3] is reported as < 30 µM.

`CC[C@@H](N[C@H](C)CC(N)=O)c1ccc(Cl)c(C(=O)c2cccc(C#N)c2)c1F` [Example 102, (3R)-3-{[(1R)-1-{4-chloro-3-[(3-cyanophenyl)carbonyl]-2-fluorophenyl}propyl]amino}-butanamide] gave an IC50 [1] of 1.2 µM and an IC50 [2] of 1 to 5 µM.

With `CC[C@@H](N[C@H](C)CC(N)=O)c1ccc(Cl)c(C(=O)c2ccccn2)c1F` [Example 105, (3R)-3-{[(1R)-1-{4-chloro-2-fluoro-3-[(pyridin-2-yl)carbonyl]phenyl}propyl]amino}butanamide] the inhibition at 30 µM was 57% and the IC50 [3] was < 30 µM.

`CC[C@@H](N[C@H](C)CC(N)=O)c1ccc(Cl)c(C(=O)c2ccncc2)c1F` [Example 107, (3R)-3-{[(1R)-1-{4-chloro-2-fluoro-3-[(pyridin-4-yl)carbonyl]phenyl}propyl]-amino}butanamide] showed an IC50 [1] of 1.1 µM and an IC50 [2] of 1 to 5 µM.

With `CC[C@@H](N[C@H](C)CC(N)=O)c1ccc(Cl)c(C(=O)c2ccns2)c1F` [Example 109, (3R)-3-{[(1R)-1-{4-chloro-2-fluoro-3-[(1,2-thiazol-5-yl)carbonyl]phenyl}propyl]-amino}butanamide] the IC50 [1] was 0.47 µM.

In the case of `CC[C@@H](N[C@H](C)CC(N)=O)c1ccc(Cl)c(C(=O)c2cc(C)on2)c1F` [Example 111, (3R)-3-{[(1R)-1-{4-chloro-2-fluoro-3-[(5-methyl-1,2-oxazol-3-yl)carbonyl]-phenyl}-propyl]amino}-butanamide], the IC50 [1] is reported as 3.1 µM and the IC50 [2] is reported as 1 to 5 µM.

In the case of `C[C@H](CC(N)=O)N[C@@H](c1ccc(Cl)c(C(=O)c2ccccc2)c1F)C1CC1` [Example 112, (3R)-3-{[(R)-(3-benzoyl-4-chloro-2-fluorophenyl)(cyclopropyl)-methyl]amino}butanamide], the IC50 [1] is reported as 0.62 µM.

Compound `CC[C@@H](N[C@H](C)CC(N)=O)c1ccc(Cl)c(C(=O)c2ccccc2)c1F` [Example 114, (3R)-3-{[(1R)-1-(3-benzoyl-4-chloro-2-fluorophenyl)-(2,2,3,3,3-D)propyl]amino}-butanamide] has an IC50 [1] of 0.75 µM.

In the case of `CC[C@@H](N[C@H](C)CC(N)=O)c1ccc(Cl)c(C(=O)c2ccc[n+]([O-])c2)c1F` [Example 117, (R)-3-{(R)-1-[4-Chloro-2-fluoro-3-(1-oxy-pyridine-3-carbonyl)-phenyl]propylamino}-butyramide], the “Assay A % inhibition average” value (@ 10 uM) is reported as 16% @ 10 uM.

In the case of `C[C@H](CC(N)=O)N[C@@H](c1ccc(Cl)c(C(=O)c2cccnc2)c1F)C1CC1` [Example 118, (3R)-3-{[(R)-{4-chloro-2-fluoro-3-[(pyridin-3-yl)carbonyl]phenyl}(cyclopropyl)methyl]amino}-butanamide], the inhibition at 3 µM (@ 3 uM) is reported as 41% and the IC50 [3] is reported as < 30 µM.

`C[C@H](CC(N)=O)N[C@@H](c1ccc(Cl)c(C(=O)c2ccc(F)cc2)c1F)C1CC1` [Example 120, (3R)-3-{[(R)-{4-chloro-2-fluoro-3-[(4-fluorophenyl)carbonyl]phenyl}(cyclopropyl)methyl]amino}butanamide] showed an IC50 [1] of 1.2 µM and an IC50 [2] of 1 to 5 µM.

`CC[C@@H](N[C@@H](C)CC(N)=O)c1ccc(Cl)c(C(=O)c2cccc(C(=O)O)c2)c1F` [Example 122, 3-({3-[(1R)-1-{[(2S)-1-carbamoylpropan-2-yl]amino}propyl]-6-chloro-2-fluorophenyl}carbonyl)-benzoic acid] was tested, and the IC50 [1] was 1.4 µM and the IC50 [2] was 1 to 5 µM.

`CC[C@@H](N[C@H](C)CC(N)=O)c1ccc(Cl)c(C(=O)c2cccc(C(=O)O)c2)c1F` [Example 123, 3-({3-[(1R)-1-{[(2R)-1-carbamoylpropan-2-yl]amino}propyl]-6-chloro-2-fluorophenyl}carbonyl)-benzoic acid] was tested, and the IC50 [1] was 3.2 µM and the IC50 [2] was 1 to 5 µM.

`[2H]C([2H])([2H])C([2H])([2H])[C@@H](N[C@H](C)CC(N)=O)c1ccc(Cl)c(C(=O)c2ccc3c(c2)OCC(=O)N3)c1F` [Example 124, (3R)-3-{[(1R)-1-{4-chloro-2-fluoro-3-[(3-oxo-3,4-dihydro-2H-1,4-benzoxazin-7-yl)carbonyl]phenyl} (2,2,3,3,3-deutero)propyl]amino}-butanamide] was tested, and the IC50 [1] was 1 µM and the IC50 [2] was 1 to 5 µM.

`C[C@H](CC(N)=O)N[C@@H](c1ccc(Cl)c(C(=O)c2ccc(C#N)cc2)c1F)C1CC1` [Example 128, (3R)-3-{[(R)-{4-chloro-3-[(4-cyanophenyl)-carbonyl]-2-fluorophenyl}(cyclo-propyl)methyl]amino}-butanamide] was tested, and the IC50 [1] was 0.28 µM and the IC50 [2] was < 1 µM.

`C[C@@H](CC(N)=O)N[C@@H](c1ccc(Cl)c(C(=O)c2ccc(C#N)cc2)c1F)C1CC1` [Example 129, (3S)-3-{[(R)-{4-chloro-3-[(4-cyanophenyl)-carbonyl]-2-fluorophenyl}(cyclo-propyl)methyl]amino}-butanamide] gave an inhibition at 0.03 µM (@ 0.03 uM) of 36%.

`C[C@H](CC(N)=O)N[C@@H](c1ccc(Cl)c(C(=O)c2ccncc2)c1F)C1CC1` [Example 130, (3R)-3-{[(R)-{4-chloro-2-fluoro-3-[(pyridin-4-yl)carbonyl]phenyl}-(cyclopropyl)methyl]-amino}butanamide] showed an IC50 [1] of 1.5 µM and an IC50 [2] of 1 to 5 µM.

With `CC[C@@H](N[C@H](C)C1(C(N)=O)CC1)c1ccc(Cl)c(C(=O)c2cccnc2)c1F` [Example 131, 1-[(1R)-1-{[(1R)-1-{4-chloro-2-fluoro-3-[(pyridin-3-yl)carbonyl]phenyl}-propyl]-amino}ethyl]-cyclopropane-1-carboxamide] the IC50 [1] was 7.9 µM and the IC50 [3] was < 30 µM.

Compound `CC[C@@H](N[C@H](C)CC(N)=O)c1ccc(Cl)c(C(=O)c2cnc(N)cn2)c1F` [Example 135, (3R)-3-{[(1R)-1-{3-[(5-aminopyrazin-2-yl)carbonyl]-4-chloro-2-fluorophenyl}propyl]-amino}butanamide] has an IC50 [1] of 3.4 µM and an IC50 [2] of 1 to 5 µM.

`CC[C@@H](N[C@@H](C)CC(N)=O)c1ccc(Cl)c(C(=O)c2ccc(N(C)C)nc2)c1F` [Example 136, (3S)-3-{[(1R)-1-(4-chloro-3-{[6-(dimethylamino)pyridin-3-yl]carbonyl}-2-fluorophenyl)propyl]-amino}butanamide] was tested, and the IC50 [1] was 0.83 µM and the IC50 [2] was < 1 µM.

`CC[C@@H](N[C@H](C)CC(N)=O)c1ccc(Cl)c(C(=O)c2ccc(N(C)C)nc2)c1F` [Example 137, (3R)-3-{[(1R)-1-(4-chloro-3-{[6-(dimethylamino)pyridin-3-yl]carbonyl}-2-fluorophenyl)propyl]amino}butanamide] was tested, and the inhibition at 30 µM was 60% and the IC50 [3] was < 30 µM.

With `CC[C@@H](N[C@@H](C)CC(N)=O)c1ccc(Cl)c(C(=O)c2cnc(N)cn2)c1F` [Example 138, (3S)-3-{[(1R)-1-{3-[(5-aminopyrazin-2-yl)carbonyl]-4-chloro-2-fluorophenyl}propyl]-amino}butanamide] the IC50 [1] was 0.31 µM and the IC50 [2] was < 1 µM.

Work on `CC[C@@H](N[C@H](C)CC(N)=O)c1ccc(Cl)c(C(=O)c2ccc(-n3cccn3)nc2)c1F` [Example 140, (3R)-3-{[(1R)-1-(4-chloro-2-fluoro-3-{[6-(1H-pyrazol-1-yl)pyridin-3-yl]carbonyl}-phenyl)-propyl]amino}-butanamide] yielded an IC50 [1] of 3.9 µM and an IC50 [2] of 1 to 5 µM.

In the case of `CC[C@@H](N[C@H](C)CC(N)=O)c1ccc(Cl)c(C(=O)c2ccc(C#N)nc2)c1F` [Example 141, (3R)-3-{[(1R)-1-{4-chloro-3-[(6-cyanopyridin-3-yl)carbonyl]-2-fluorophenyl}propyl]-amino}butanamide], the IC50 [1] is reported as 0.47 µM and the IC50 [2] is reported as < 1 µM.

For `CC[C@@H](N[C@H](C)CC(N)=O)c1ccc(Cl)c(C(=O)c2cc[n+]([O-])cc2)c1F` [Example 143, (R)-3-{(R)-1-[4-Chloro-2-fluoro-3-(1-oxy-pyridine-4-carbonyl)-phenyl]propylamino}-butyramide], the “Assay A % inhibition average” value was 59% @ 30 uM and the IC50 [3] was < 30 µM.
